Experimental data: patent US4395402A, “Analgesic agent” (Zaidan Hojin Biseibutsu Kagaku Kankyu Kai, priority 1980, dated 1983)

Columns and labels:
enkephalinase = target: T1, enkephalinase (Rattus norvegicus, UniProt P07861); assay: Inhibitory activity against enkephalinase (Test 1); type: biochemical; conditions: for Inhibitory activity to enkephalinase ID50: partially purified enkephalinase from rat brain corpus striatum, substrate methionine-enkephaline, 37° C., 1 hour, HPLC of Tyr-Gly-Gly
T1 construct: homogenizing corpus striatum of rat brain and by partial purification of the brain homogenate; from tissue; host or cells: corpus striatum of rat brain
T1 sequence (P07861 2-750 limits assumed): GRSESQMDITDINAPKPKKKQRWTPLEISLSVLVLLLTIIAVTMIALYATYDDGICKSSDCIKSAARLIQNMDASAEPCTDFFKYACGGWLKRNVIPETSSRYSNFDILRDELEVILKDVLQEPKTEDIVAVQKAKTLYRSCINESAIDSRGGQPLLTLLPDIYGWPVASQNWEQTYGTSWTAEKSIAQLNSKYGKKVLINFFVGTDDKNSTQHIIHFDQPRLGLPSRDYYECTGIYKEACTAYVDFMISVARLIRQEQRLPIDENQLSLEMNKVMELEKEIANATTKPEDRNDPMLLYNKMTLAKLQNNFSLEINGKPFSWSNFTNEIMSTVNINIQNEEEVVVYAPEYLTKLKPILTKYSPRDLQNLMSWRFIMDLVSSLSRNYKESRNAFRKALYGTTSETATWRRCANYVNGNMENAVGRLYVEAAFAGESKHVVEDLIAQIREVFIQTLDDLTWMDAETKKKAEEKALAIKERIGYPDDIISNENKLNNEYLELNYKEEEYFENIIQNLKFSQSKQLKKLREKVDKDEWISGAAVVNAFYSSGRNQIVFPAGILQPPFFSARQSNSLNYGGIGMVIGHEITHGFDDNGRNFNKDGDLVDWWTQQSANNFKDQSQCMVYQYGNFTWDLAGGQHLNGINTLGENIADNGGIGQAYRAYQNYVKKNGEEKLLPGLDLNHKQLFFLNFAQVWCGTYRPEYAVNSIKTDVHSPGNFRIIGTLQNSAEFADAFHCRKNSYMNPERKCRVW
Description: To the solution of the test compound so prepared was added the enkephalinase, followed by incubation for five minutes at ambient temperature and further by addition of methionine-enkephaline as the substrate. The admixture so obtained was incubated at 37° C. for 1 hour and then subjected to a high-performance liquid chromatography in such a manner that the Tyr-Gly-GLy (a fragment of the methionine-enkephaline) formed by the enzymatic degradation of methionine-enkephaline was isolated in some fractions of the eluate and the quantity of Tyr-Gly-GLy was determined by an electro-chemically analysing detector.

Wistar rats = assay: Enhancement of morphine analgesia, tail-flick latency (Test 2); type: in vivo, rat
Description: To Wistar rats (10 week aged, male, body weight 250-300 g) was given intraperitoneally morphine at a dose of 0.5 mg/kg, and these rats receiving the morphine were classified into the group of morphine analgesia-effective rats and the group of morphine analgesia-non-effectiverats according to the classification method described in the "Showa Igakukai Zasshi" Vol. 39, No. 5, pages 537-542 (1979). […] The effect of analgesia was evaluated according to the method of tail-flick latency of rats described in the "Showa Igakukai Zasshi" Vol. 39, No. 5, pages 537-542 (1979). The evaluation of pain threshold of rats according to the tail-flick latency method was made as follows: Radiant heat stimulus was applied to the region of the rat tail which positioned 1 cm away from the tail tip and which had been colored black with a black-dye, and the time of latency involved in the tail flick, namely the period of time lapsing between the time of application of the heat stimulus and the time of the reflective flick response of the tail was measured. The quantity of the heat applied was so controlled that the average time of latency of the tail-flick response appearing in the control group of rats (receiving not the test compound but the morphine) was about 2.0 seconds. The tests were accomplished as long as the maximum value for the tail-flick latency was 7.0 seconds or less, as otherwise the skin of the rat tail could be damaged by the application of heat. In other words, if the time for the tail-flick latency was longer than 7.0 seconds, the tests were stopped to prevent the damage of the rat tail. The radiant heat stimulus was repeated 5 times for each test rat at an interval of 15 minutes and the times of latency in the flick response of the tail measured in each test were averaged. In each test, 5 rats were used.
The difference in the time of the tail-flick latency between the test rats (receiving 250 mg/kg of the test compound plus 0.5 mg/kg of morphine) and the control rats (receiving 0.5 mg/kg of morphine alone) was calculated, and the effect for enhancement of morphine analgesia was estimated in term of the value of percentages which were calculated by the following equation: [formula]

ICR-strain mice = conditions: 2 g/kg intraperitoneally, 6 mice per group
rats = assay: Analgesic activity of test compound administered alone intracisternally, tail-flick latency (Test 3); type: in vivo, rat; conditions: for Analgesic activity (%) (increase in tail-flick latency): no morphine
Description: Analgesic activity was evaluated in term of the value of percentages of increase in the tail-flick latency of the test rats receiving the test compound, as compared to the control rats receiving no test compound.
The test as above was repeated with 2 mcg/kg of naloxone (a specific antogonizer to morphine) being intraperitoneally given into the test rats simultaneously to the intracisternal administration of the bestatin-related compound under test.

[1] = 250 mg/kg test compound i.p. + 0.5 mg/kg morphine i.p., morphine analgesia-non-effective rats, versus 0.5 mg/kg morphine alone

| Compound | Inhibitory activity to enkephalinase ID50 (enkephalinase) [milimol] | Analgesia enhancement (%) (Wistar rats; [1]) | other results |
| --- | --- | --- | --- |
| CC(C)C[C@H](NC(=O)[C@@H](O)[C@H](N)Cc1ccccc1)C(=O)O [Compound 1, (2S,3R)-3-amino-2-hydroxy-4-phenylbutanoyl-(S)-leucine] | 0.62 | 19.5 | – |
| CC(C)C[C@H](NC(=O)[C@H](O)[C@H](N)Cc1ccccc1)C(=O)O [Compound 2, (2S,3R)-3-amino-2-hydroxy-4-phenylbutanoyl-(R)-leucine] | 2.40 | 24.9 | – |
| N[C@H](Cc1ccccc1)[C@H](O)C(=O)N[C@H](CCC(=O)O)C(=O)O [Compound 3, (2S,3R)-3-amino-2-hydroxy-4-phenylbutanoyl-(R)-glutamic] | 30.86 | – | – |
| C[C@H](NC(=O)[C@H](O)[C@H](N)Cc1ccccc1)C(=O)O [Compound 4, (2S,3R)-3-amino-2-hydroxy-4-phenylbutanoyl-(R)-alanine] | 5.98 | – | Acute toxicity (survival) (ICR-strain mice): all the mice receiving 2 g/kg of AHPA-D-Ala survived |
| N=C(N)NCCC[C@H](NC(=O)[C@H](O)[C@H](N)Cc1ccccc1)C(=O)O [Compound 5, (2S,3R)-3-amino-2-hydroxy-4-phenylbutanoyl-(R)-arginine] | 0.063 | 13.6 | Activity to inhibit enkephalinase in vitro (in words) (enkephalinase; summary statement): high activity to inhibit enkephalinase; Enhancement of the analgesic activity of morphine (in words) (Wistar rats; summary statement): not significantly effective; Analgesic activity (%) (increase in tail-flick latency) (rats; dose 60 mcg intracisternally): 134.0%; Analgesic activity when administered intracisternally in the brain (in words) (rats; summary statement): high analgesic activity |
| CSCC[C@H](NC(=O)[C@H](O)[C@H](N)Cc1ccccc1)C(=O)O [Compound 6, (2S,3R)-3-amino-2-hydroxy-4-phenylbutanoyl-(R)-methionine] | 2.54 | 14.7 | – |
| CSCC[C@H](NC(=O)[C@@H](O)[C@H](N)Cc1ccccc1)C(=O)O [Compound 7, (2S,3R)-3-amino-2-hydroxy-4-phenylbutanoyl-(S)-methionine] | 2.78 | 10.5 | – |
| CC(C)C[C@H](NC(=O)[C@@H](O)[C@H](N)Cc1ccc(O)cc1)C(=O)O [Compound 8, (2S,3R)-3-amino-2-hydroxy-4-p-hydroxyphenylbutanoyl-(S)-leucine] | 0.37 | 34.5 | Analgesic activity (%) (increase in tail-flick latency) (rats; dose 500 mcg intracisternally): 47.0% |
| CC(C)C[C@H](NC(=O)[C@H](O)[C@H](N)Cc1ccc(O)cc1)C(=O)O [Compound 9, (2S,3R)-3-amino-2-hydroxy-4-p-hydroxyphenylbutanoyl-(R)-leucine] | 20.68 | 23.1 | – |
| N[C@H](Cc1ccc(O)cc1)[C@H](O)C(=O)N[C@H](Cc1ccccc1)C(=O)O [Compound 10, (2S,3R)-3-amino-2-hydroxy-4-p-hydroxyphenylbutanoyl-(R)-phenylalanine] | – | 27.0 | – |
| CC(C)C[C@H](NC(=O)[C@@H](O)[C@H](N)Cc1ccccc1)C(=O)N[C@H](CC(C)C)C(=O)O [Compound 11, (2S,3R)-3-amino-2-hydroxy-4-phenylbutanoyl-(S)-leucyl-(R)-leucine] | 0.95 | 5.2 | – |
| N[C@H](Cc1ccccc1)[C@H](O)C(=O)NCCC(=O)O [Compound 12, (2S,3R)-3-amino-2-hydroxy-4-phenylbutanoyl-β-alanine] | – | 12.0 | – |
| NC(=O)C[C@H](NC(=O)[C@H](O)[C@H](N)Cc1ccccc1)C(=O)O [Compound 13, (2S,3R)-3-amino-2-hydroxy-4-phenylbutanoyl-(R)-asparagine] | 3.12 | – | – |
| N[C@H](Cc1ccccc1)[C@H](O)C(=O)NCC(=O)O [Compound 14, (2S,3R)-3-amino-2-hydroxy-4-phenylbutanoyl-glycine] | – | 19.1 | – |
| N[C@H](Cc1ccccc1)[C@H](O)C(=O)O [Compound 15, (2S,3R)-3-amino-2-hydroxy-4-phenylbutanoic acid] | – | 14.1 | – |
| CN1CC[C@]23c4c5ccc(O)c4O[C@H]2[C@@H](O)C=C[C@H]3[C@H]1C5 [Morphine, reference compound] | – | – | Analgesia enhancement (%) (Wistar rats; comparative: morphine 0.5 mg/kg alone (control reference)): 0%; Analgesia enhancement (%) (Wistar rats; comparative: morphine 2 mg/kg alone): 28.4%; Analgesia enhancement (%) (Wistar rats; comparative: morphine 3 mg/kg alone): 35.1% |
